In patent US8304377B2, “Sulfonate surfactants and methods of preparation and use” (Dow Global Technologies LLC, priority 2009, dated 2012):

Experiments:
Desmondesmus subspicatus = assay: Fresh water algal growth inhibition test (OECD 201); format: cell-based; settings: growth rate, 0-3; read-out: Fresh Water algal growth inhibition test with Desmondesmus subspicatus ErC50/0-3
Text: The study procedures and test methods are based on the recommendations of the following guidelines: Organization for Economic Cooperation and Development (OECD): OECD Guidelines for the Testing of Chemicals, “Freshwater Alga and Cyanobacteria, Growth Inhibition Test”, Procedure 201, adopted 23 Mar. 2006; European Economic Community (EEC): Commission directive 92/69/EEC of 31 Jul. 1992, Methods for the determination of ecotoxicity, C.3., “Algal Inhibition Test”. Data from the aquatic toxicity tests of the isolated and purified C12 mono and disulfonates from Example 11 is shown in Table 3.

Daphna magna = assay: 48-hour acute toxicity to Daphnia; format: in vivo
Text: The study procedures and test methods are based on the recommendations of the following guidelines:
Data from the aquatic toxicity tests of the isolated and purified C12 mono and disulfonates from Example 11 is shown in Table 3.

[1] = Solubility evaluation, visual assessment in caustic, calcium chloride and cold water; format: physicochemical
Text: The final concentrations are: 0.1 wt % for surfactant, 10 wt % for NaOH.
The final concentrations are: 0.1 wt % for surfactant, 1 M for CaCl2.
, C12, and C14 sulfonate compositions of the invention, as produced in Examples 5, 7, and 8, in 10% sodium hydroxide, 1M calcium chloride, […] 2A1 are shown in Table 2 below, and indicate that these new materials have desirable characteristics.

Molecule	EC50 (Desmondesmus subspicatus)	EC50 (Daphna magna)	Visual assessment, 0.1 wt % surfactant in 1M CaCl2 ([1]; 0.1 wt % surfactant, 1 M CaCl2)	Visual assessment, 0.1 wt % surfactant in 10% NaOH ([1]; 0.1 wt % surfactant, 10 wt % NaOH)	Visual assessment, 1 wt % surfactant at 7° C. ([1]; 1 wt % surfactant, 7° C.)
CCCCCCCCCCCCOC(CS(=O)(=O)[O-])CS(=O)(=O)[O-].[Na+].[Na+] [sodium 2-(dodecanyloxy)propane-1,3-disulfonate]	> 100 µg/mL	> 100 µg/mL	–	–	–
linear alkylbenzene sulfonate [LAS]	–	–	cloudy	cloudy	cloudy
